Literature values as cited in US7323476B2, “Myriceric acid derivatives for the treatment of cancer, cardiovascular and inflammatory diseases” (SaviPu Pharmaceuticals, priority 2006, dated 2008).

What was measured:
NF-κB = details: qualitative statement on natural products of Fig. R
endothelin receptor = details: qualitative, earlier studies

Molecule | inhibition of NF-κB (NF-κB) | binding to the endothelin receptor (endothelin receptor)
Theaflavin-3,3′-digallate | potent inhibitor | 
myriceric acid A [PM2011A] |  | already been demonstrated
COc1c(O)cc(O)c2c(=O)cc(-c3ccccc3)oc12 [wogonin] | good activity | 
